Test results taken from US8546381B2, “Bridged heterocyclic compounds and methods of use” (Medivation Technologies, Inc., priority 2008, dated 2013).

Assays:
[1] = target: T1, human recombinant adrenergic α1D receptor (Homo sapiens, UniProt P25100); assay: Adrenergic α1D radioligand binding ([3H]Prozosin); conditions: for inhibition at 1 µM: read-out: Adrenergic α1D, inhibition of ligand binding (1 μM)
T1 construct: expressed in transfected cells; host or cells: HEK-293 cells
T1 sequence (P25100 1-572): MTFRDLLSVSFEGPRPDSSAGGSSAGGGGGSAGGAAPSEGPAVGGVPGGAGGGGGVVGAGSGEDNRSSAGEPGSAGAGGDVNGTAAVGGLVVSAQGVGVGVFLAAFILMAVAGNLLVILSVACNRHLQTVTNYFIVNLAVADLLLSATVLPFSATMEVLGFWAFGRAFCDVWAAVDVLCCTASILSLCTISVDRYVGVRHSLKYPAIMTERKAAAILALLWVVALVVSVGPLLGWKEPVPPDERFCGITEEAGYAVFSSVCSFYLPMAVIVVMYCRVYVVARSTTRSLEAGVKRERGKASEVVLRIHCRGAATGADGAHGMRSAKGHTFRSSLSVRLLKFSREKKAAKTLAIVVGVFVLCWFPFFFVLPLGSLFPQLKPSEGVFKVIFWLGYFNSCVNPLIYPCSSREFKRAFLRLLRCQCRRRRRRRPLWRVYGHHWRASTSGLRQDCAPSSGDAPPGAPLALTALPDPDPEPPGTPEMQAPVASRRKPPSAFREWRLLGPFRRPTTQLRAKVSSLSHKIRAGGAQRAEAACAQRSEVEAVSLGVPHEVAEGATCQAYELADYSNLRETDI
Protocol: To evaluate in radioligand binding assays the activity of compounds of the invention, human recombinant adrenergic α1D receptor expressed in human embryonic kidney (HEK-293) cells (Kenny, B. A. et al. Br. J. Pharmacol. 115(6):981, 1995) in a 50 mM Tris-HCl buffer, pH 7.4, was used. Compounds of invention were incubated with 0.6 nM [^3H]Prozosin for 60 minutes at 25° C. Non-specific binding was estimated in the presence of 10 μM phentolamine. Receptor proteins were filtered and washed, the filters were then counted to determine [^3H]Prozosin specifically bound. Compounds were screened at 1 μM or lower, using 1% DMSO as vehicle. Biochemical assay results are presented as the percent inhibition of specific binding in Table 3.

[2] = target: T2, human recombinant adrenergic α2A receptor (Homo sapiens, UniProt P08913); assay: Adrenergic α2A radioligand binding ([3H]MK-912); conditions: for inhibition at 1 µM: read-out: Adrenergic α2A, inhibition of ligand binding (1 μM)
T2 construct: expressed in transfected cells; host or cells: insect Sf9 cells
T2 sequence (P08913 1-465): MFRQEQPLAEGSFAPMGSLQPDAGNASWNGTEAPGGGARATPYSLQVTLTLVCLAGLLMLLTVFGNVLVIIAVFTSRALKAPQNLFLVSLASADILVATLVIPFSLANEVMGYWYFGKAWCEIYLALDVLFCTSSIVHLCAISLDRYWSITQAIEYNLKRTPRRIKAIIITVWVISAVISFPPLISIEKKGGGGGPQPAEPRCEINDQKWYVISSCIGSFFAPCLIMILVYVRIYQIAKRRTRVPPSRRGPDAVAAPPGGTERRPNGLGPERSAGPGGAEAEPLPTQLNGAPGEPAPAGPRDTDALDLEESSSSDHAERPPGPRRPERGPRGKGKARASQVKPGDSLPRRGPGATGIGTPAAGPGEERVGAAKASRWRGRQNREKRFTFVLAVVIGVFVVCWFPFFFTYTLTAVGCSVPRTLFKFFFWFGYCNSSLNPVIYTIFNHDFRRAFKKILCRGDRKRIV
Protocol: To evaluate in radioligand binding assays the activity of compounds of the invention, human recombinant adrenergic α2A receptor expressed in insect Sf9 cells (Uhlen S et al. J Pharmacol Exp Ther. 271:1558, 1994) in a modified Tris-HCl buffer (50 mM Tris-HCl, pH 7.4, 12.5 mM MgCl2, 2 mM EDTA) was used. Compounds of invention were incubated with 1 nM [^3H]MK-912 for 60 minutes at 25° C. MK912 is (2S-trans)-1,3,4,5′,6,6′,7,12b-octahydro-1′,3′-dimethyl-spiro[2H-benzofuro[2,3-a]quinolizine-2,4′(1′H) -pyrimidin]-2′(3′H)-one hydrochloride Non-specific binding was estimated in the presence of 10 μM WB-4101 (2-(2,6-Dimethoxyphenoxyethyl)aminomethyl-1,4-benzodioxane hydrochloride). Receptor proteins were filtered and washed, the filters were then counted to determine [^3H]MK-912 specifically bound. Compounds were screened at 1 μM or lower, using 1% DMSO as vehicle. Biochemical assay results are presented as the percent inhibition of specific binding in Table 3.

[3] = target: T3, human recombinant serotonin (5-Hydroxytryptamine) 5-HT6 receptor (Homo sapiens, UniProt P50406); assay: Serotonin 5-HT6 radioligand binding ([3H]LSD); conditions: read-out: Serotonin 5-HT6, inhibition of ligand binding (1 μM)
T3 construct: expressed in transfected cells; host or cells: human HeLa cells
T3 sequence (P50406 whole entry): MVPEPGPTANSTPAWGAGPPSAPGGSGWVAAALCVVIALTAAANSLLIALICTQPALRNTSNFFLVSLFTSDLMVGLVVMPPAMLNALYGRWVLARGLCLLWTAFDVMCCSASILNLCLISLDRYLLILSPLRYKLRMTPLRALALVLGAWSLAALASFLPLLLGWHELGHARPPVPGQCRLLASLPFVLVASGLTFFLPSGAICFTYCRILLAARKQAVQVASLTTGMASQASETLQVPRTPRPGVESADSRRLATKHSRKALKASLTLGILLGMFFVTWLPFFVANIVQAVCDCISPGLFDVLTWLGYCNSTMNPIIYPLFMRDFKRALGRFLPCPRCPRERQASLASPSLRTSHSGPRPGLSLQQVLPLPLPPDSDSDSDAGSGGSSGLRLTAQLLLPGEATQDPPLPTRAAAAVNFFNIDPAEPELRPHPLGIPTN
Protocol: To evaluate in radioligand binding assays the activity of compounds of the invention, human recombinant serotonin (5-Hydroxytryptamine) 5-HT6 receptor expressed in human HeLa cells (Monsma, F. J. Jr. et al., Mol. Pharmacol. 43:320, 1993) in a modified Tris-HCl buffer (50 mM Tris-HCl, pH 7.4, 150 mM NaCl, 2 mM Ascorbic Acid, 0.001% BSA) was used. Compounds of the invention were incubated with 1.5 nM [3H]Lysergic acid diethylamide (LSD) for 120 minutes at 37° C. Non-specific binding was estimated in the presence of 5 μM Serotonin (5-HT). Receptor proteins were filtered and washed, the filters were then counted to determine [3H]LSD specifically bound. Compounds were screened at 1 μM or lower, using 1% DMSO as vehicle. Biochemical assay results are presented as the percent inhibition of specific binding in Table 4.

[4] = target: T4, human recombinant serotonin (5-Hydroxytryptamine) 5-HT2A receptor (Homo sapiens, UniProt P28223); assay: Serotonin 5-HT2A radioligand binding ([3H]Ketanserin); conditions: read-out: Serotonin 5-HT2A, inhibition of ligand binding (1 μM)
T4 construct: expressed in transfected cells; host or cells: CHO-K1 cells
T4 sequence (P28223 whole entry): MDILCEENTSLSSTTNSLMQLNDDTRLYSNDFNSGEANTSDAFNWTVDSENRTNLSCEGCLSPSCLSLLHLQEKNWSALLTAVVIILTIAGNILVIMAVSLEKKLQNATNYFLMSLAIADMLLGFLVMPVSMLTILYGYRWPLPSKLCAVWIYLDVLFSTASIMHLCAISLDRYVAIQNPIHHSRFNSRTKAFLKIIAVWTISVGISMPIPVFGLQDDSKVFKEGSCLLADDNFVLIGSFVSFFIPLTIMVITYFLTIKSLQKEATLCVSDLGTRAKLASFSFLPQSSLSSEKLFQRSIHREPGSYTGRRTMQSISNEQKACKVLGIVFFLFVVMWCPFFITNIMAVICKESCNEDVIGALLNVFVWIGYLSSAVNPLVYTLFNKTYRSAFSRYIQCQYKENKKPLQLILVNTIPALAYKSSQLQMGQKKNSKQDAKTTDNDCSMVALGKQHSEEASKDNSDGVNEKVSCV
Protocol: To evaluate in radioligand binding assays the activity of compounds of the invention, human recombinant serotonin (5-Hydroxytryptamine) 5-HT2A receptor expressed in Chinese hamster ovary (CHO-K1) cells (Bonhaus, D. W. et al. Br. J. Pharmacol. 115:622, 1995; Saucier, C. and Albert, P. R., J. Neurochem. 68:1998, 1997) in a 50 mM Tris-HCl buffer, pH 7.4, was used. Compounds of the invention were incubated with 0.5 nM [^3H]Ketanserin for 60 minutes at 25° C. Non-specific binding was estimated in the presence of 1 μM Mianserin. Receptor proteins were filtered and washed, the filters were then counted to determine [^3H]Ketanserin specifically bound. Compounds were screened at 1 μM or lower, using 1% DMSO as vehicle. Biochemical assay results are presented as the percent inhibition of specific binding in Table 4.

| SMILES | inhibition at 1 µM [1] [%] | inhibition at 1 µM [2] [%] | inhibition at 1 µM [3] [%] | inhibition at 1 µM [4] [%] | inhibition at 0.03 µM ([1]; 0.03 μM, read-out: Adrenergic α1D, inhibition of ligand binding (0.03 μM)) [%] | inhibition at 0.3 µM ([1]; 0.3 μM, read-out: Adrenergic α1D, inhibition of ligand binding (0.3 μM)) [%] | inhibition at 0.01 µM ([2]; 10.0 nM, read-out: Adrenergic α2A, inhibition of ligand binding (10.0 nM)) [%] | inhibition at 0.1 µM ([2]; 0.1 μM, read-out: Adrenergic α2A, inhibition of ligand binding (0.1 μM)) [%] |
| --- | --- | --- | --- | --- | --- | --- | --- | --- |
| Cc1ccc2c(c1)c1c(n2CC(O)c2ccc(C)nc2)CC2CCC1N2C (stereo not shown) [Compound 91] | 24 | 29 | -5 | 2 |  |  |  |  |
| CN1C2CCC1c1c(n(CCCc3ccc(Cl)cc3)c3ccc(Cl)cc13)C2 (stereo not shown) [Compound 39] | 11 | 68 | 24 | 87 |  |  |  |  |
| CN1[C@H]2CC[C@@H]1c1c(n(CCc3ccc(F)cc3)c3ccc(F)cc13)C2 [Compound 95, (−)-(7R,10S)-2-Fluoro-5-(4-fluorophenethyl)-11-methyl-5,6,7,8,9,10-hexahydro-7,10-iminocyclohept[b]indole] | 82 | 65 | 41 | 57 |  |  |  |  |
| Cc1ccc2c(c1)c1c(n2CCc2cccnc2)CC2CCC1N2C (stereo not shown) [Compound 86] | 87 | 63 | 60 | 64 |  |  |  |  |
| Cc1ccc2c(c1)c1c(n2CCc2nc(-c3ccccc3)cs2)CC2CCC1N2C (stereo not shown) [Compound 114] | 68 | 46 | 29 | 88 |  |  |  |  |
| Cc1ccc2c(c1)c1c(n2CCc2ccccc2)CC2CCC1N2C (stereo not shown) [Compound 2] | 94 | 100 | 82 | 96 | 44 | 85 | 47 | 88 |
| Cc1ccc2c(c1)c1c(n2CC(=O)N2CCCCC2)CC2CCC1N2C (stereo not shown) [Compound 93] | -18 | 4 | -4 | -12 |  |  |  |  |
| Cc1ccc(CCCn2c3c(c4cc(Cl)ccc42)C2CCC(C3)N2C)cn1 (stereo not shown) [Compound 38] | 50 | 33 | 17 | 13 |  |  |  |  |
| CN1C2CCC1c1c(n(CCC(=O)N3CCNCC3)c3ccc(Cl)cc13)C2 (stereo not shown) [Compound 9] | 9 | 9 | 2 | 15 |  |  |  |  |
| Cc1ccc2c(c1)c1c(n2CCc2cnc(C)nc2)CC2CCC1N2C (stereo not shown) [Compound 81] | 42 | -5 | 12 | -12 |  |  |  |  |
| C/C(=C\n1c2c(c3cc(Cl)ccc31)C1CCC(C2)N1C)c1ccc(Cl)cc1 (stereo not shown) [Compound 125] | 54 | 92 | 33 | 101 |  |  |  |  |
| CN1C2CCC1c1c(n(C#Cc3ccc(Cl)cc3)c3ccc(Cl)cc13)C2 (stereo not shown) [Compound 142] | 27 | 82 | 36 | 98 |  |  |  |  |
| CN1C2CCC1c1c(n(CCC(=O)N3CCOCC3)c3ccc(Cl)cc13)C2 (stereo not shown) [Compound 13] | 8 | 2 | 10 |  |  |  |  |  |
| Cc1ccc(CCn2c3c(c4ccccc42)C2CCC(C3)N2C)cn1 (stereo not shown) [Compound 92] | 8 | 15 | 3 | 16 |  |  |  |  |
| CN1[C@@H]2CC[C@H]1c1c(n(CCc3ccc(F)cc3)c3ccc(F)cc13)C2 [Compound 94, (+)-(7S,10R)-2-Fluoro-5-(4-fluorophenethyl)-11-methyl-5,6,7,8,9,10-hexahydro-7,10-iminocyclohept[b]indole] | 77 | 56 | 21 | 81 |  |  |  |  |
| Cc1ccc(C(O)Cn2c3c(c4cc(Cl)ccc42)C2CCC(C3)N2C)cn1 (stereo not shown) [Compound 52] | 33 | 46 | 16 | 21 |  |  |  |  |
| CN1C2CCC1c1c(n(CCc3ccc(F)cc3)c3ccc(F)cc13)C2 (stereo not shown) [Compound 35] | 78 | 93 | 70 |  |  |  |  |  |
| CN1C2CCC1c1c(n(CCc3ccc(Cl)cc3)c3ccc(F)cc13)C2 (stereo not shown) [Compound 33] | 36 | 69 | 14 |  |  |  |  |  |
| CN1C2CCC1c1c(n(CC(=O)N3CCCC3)c3ccc(Cl)cc13)C2 (stereo not shown) [Compound 60] | 1 | 2 | 9 |  |  |  |  |  |
| Cc1ccc2c(c1)c1c(n2CCc2ccc(F)cc2)CC2CCC1N2C (stereo not shown) [Compound 62] | 83 | 96 | 71 |  |  |  |  |  |
| Cc1ccc(CCn2c3c(c4cc(Cl)ccc42)C2CCC(C3)N2C)cc1 (stereo not shown) [Compound 61] | 80 | 97 | 41 |  |  |  |  |  |
| CN1C2CCC1c1c(n(CCC(=O)N3CCCC3)c3ccc(Cl)cc13)C2 (stereo not shown) [Compound 5] | 21 | 4 | 7 |  |  |  |  |  |
| CN1C2CCC1c1c(n(CC(=O)N3CCOCC3)c3ccc(Cl)cc13)C2 (stereo not shown) [Compound 59, 2-(2-chloro-11-methyl-5,6,7,8,9,10-Hexahydro-7,10-iminocyclohept[b]indol-5-yl)-1-morpholinoethanone] | 2 | 17 | 0 |  |  |  |  |  |
